≈ marks a conversion by molar mass, not a printed value.
Legend:
[1] = system: AECO063 (ATCC25922 bearing an acrAB mutation); test: microbe, parasite or virus in culture; format: cell-based, E. coli; conditions: Escherichia coli, ATCC25922, read-out: MIC AECO063
Procedure, shortened: (§1)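 MICs come from broth microdilution in cation-adjusted Mueller-Hinton broth, final inoculum 3×10^5–7×10^5 CFU/mL, 18-24 hours at 35° C. Levofloxacin and QC strains served as assay controls.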

AECO001 HSA AGP = test: MIC broth microdilution, AECO001 HSA AGP; format: cell-based, E. coli; conditions: Escherichia coli
Procedure, shortened: as §1

[2] = system: AABA1060 (clinical isolate of Acinetobacter baumannii); test: MIC broth microdilution, AABA1060; format: cell-based; conditions: Acinetobacter baumannii, read-out: MIC AABA1060
Procedure, shortened: as §1

[3] = system: APAE006 (strain of P. aeruginosa in which all efflux pumps are inactivated); test: microbe, parasite or virus in culture; format: cell-based; conditions: Pseudomonas aeruginosa, read-out: MIC APAE006, P. aeruginosa, all efflux pumps inactivated
Procedure, shortened: (§2)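 For the efflux-deficient P. aeruginosa APAE006, one set of MICs includes polymyxin B nonapeptide at 8 micrograms per milliliter.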

APAE001 (ATCC27853) = test: MIC broth microdilution, APAE001; format: cell-based, P. aeruginosa; conditions: Pseudomonas aeruginosa, ATCC27853, read-out: MIC APAE001, APAE001 is ATCC27853
Procedure, shortened: as §1

[4] = system: APAE006 in the presence of 8 micrograms per milliliter of polymyxin B nonapeptide; format: cell-based, P. aeruginosa; conditions: in the presence of 8 micrograms per milliliter of polymyxin B nonapeptide
Procedure, shortened: as §2

AECO001 (ATCC25922) = test: MIC broth microdilution, AECO001; format: cell-based, E. coli; conditions: Escherichia coli, ATCC25922, read-out: MIC AECO001
Procedure, shortened: as §1

[5] = system: ASAU001 (laboratory strain of S. aureus, ATCC29213); test: MIC broth microdilution, ASAU001; format: cell-based; conditions: Staphylococcus aureus, ATCC29213, read-out: MIC ASAU001
Procedure, shortened: as §1

Compound | MIC [1] | MIC (AECO001 HSA AGP) | MIC [2] | MIC [3] | MIC (APAE001 (ATCC27853)) | MIC APAE006 + PMBN [4] | MIC (AECO001 (ATCC25922)) | MIC [5]
C[C@@H](N)[C@H](NC(=O)c1ccc(C#CC#Cc2ccc(CNC3CC3)cc2)cc1)C(=O)NO [Example 86-3] | < 2 µg/mL | < 2 µg/mL | 2 to 16 µg/mL (≈ 4.65 to 37.2 µM) | < 2 µg/mL | < 2 µg/mL | A (MIC's of 2.0 μg/mL or less = A) | < 2 µg/mL | 16 to 64 µg/mL (≈ 37.2 to 149 µM)
C[C@@H](O)[C@H](NC(=O)c1ccc(C#CC#Cc2ccc(CNC3CC3)cc2)cc1)C(=O)NO [Example 87-2] | < 2 µg/mL | < 2 µg/mL | 16 to 64 µg/mL (≈ 37.1 to 148 µM) | < 2 µg/mL | < 2 µg/mL | A (MIC's of 2.0 μg/mL or less = A) | < 2 µg/mL | 16 to 64 µg/mL (≈ 37.1 to 148 µM)
CC(C)(O)[C@H](NC(=O)c1ccc(C#CC#Cc2ccc(CNC3CC3)cc2)cc1)C(=O)NO [Example 87-3] | < 2 µg/mL | < 2 µg/mL | < 2 µg/mL | < 2 µg/mL | < 2 µg/mL | A (MIC's of 2.0 μg/mL or less = A) | < 2 µg/mL | 16 to 64 µg/mL (≈ 35.9 to 144 µM)
C[C@@H](N)[C@H](NC(=O)c1ccc(C#CC#Cc2cncn2C)cc1)C(=O)NO [Example 88-1, N-((1S,2R)-2-Amino-1-hydroxycarbamoyl-propyl)-4-[4-(3-methyl-3H-imidazol-4-yl)-buta-1,3-diynyl]-benzamide] | < 2 µg/mL | 2 to 16 µg/mL (≈ 5.47 to 43.8 µM) | 16 to 64 µg/mL (≈ 43.8 to 175 µM) | < 2 µg/mL | 2 to 16 µg/mL (≈ 5.47 to 43.8 µM) | A (MIC's of 2.0 μg/mL or less = A) | < 2 µg/mL | 16 to 64 µg/mL (≈ 43.8 to 175 µM)
C[C@@H](N)[C@H](NC(=O)c1ccc(C#CC#Cc2ccncc2)cc1)C(=O)NO [Example 88-2] | < 2 µg/mL | 2 to 16 µg/mL (≈ 5.52 to 44.2 µM) | 2 to 16 µg/mL (≈ 5.52 to 44.2 µM) | < 2 µg/mL | < 2 µg/mL | A (MIC's of 2.0 μg/mL or less = A) | < 2 µg/mL | 2 to 16 µg/mL (≈ 5.52 to 44.2 µM)
C[C@@H](N)[C@H](NC(=O)c1ccc(C#CC#Cc2cccnc2)cc1)C(=O)NO [Example 88-3] | < 2 µg/mL | 2 to 16 µg/mL (≈ 5.52 to 44.2 µM) | 2 to 16 µg/mL (≈ 5.52 to 44.2 µM) | < 2 µg/mL | < 2 µg/mL | A (MIC's of 2.0 μg/mL or less = A) | < 2 µg/mL | > 64 µg/mL
C[C@@H](N)[C@H](NC(=O)c1ccc(C#CC#Cc2ccccn2)cc1)C(=O)NO [Example 88-4] | < 2 µg/mL | 16 to 64 µg/mL (≈ 44.2 to 177 µM) | 16 to 64 µg/mL (≈ 44.2 to 177 µM) | < 2 µg/mL | < 2 µg/mL | A (MIC's of 2.0 μg/mL or less = A) | 2 to 16 µg/mL (≈ 5.52 to 44.2 µM) | > 64 µg/mL
C[C@@H](O)[C@H](NC(=O)c1ccc(C#CC#Cc2cncn2C)cc1)C(=O)NO [Example 88-9] | < 2 µg/mL | 2 to 16 µg/mL (≈ 5.46 to 43.7 µM) | 16 to 64 µg/mL (≈ 43.7 to 175 µM) | < 2 µg/mL | 2 to 16 µg/mL (≈ 5.46 to 43.7 µM) | A (MIC's of 2.0 μg/mL or less = A) | < 2 µg/mL | 16 to 64 µg/mL (≈ 43.7 to 175 µM)
Cn1cncc1C#CC#Cc1ccc(C(=O)N[C@H](C(=O)NO)C(C)(C)O)cc1 [Example 88-10] | < 2 µg/mL | 2 to 16 µg/mL (≈ 5.26 to 42.1 µM) | 2 to 16 µg/mL (≈ 5.26 to 42.1 µM) | < 2 µg/mL | 2 to 16 µg/mL (≈ 5.26 to 42.1 µM) | A (MIC's of 2.0 μg/mL or less = A) | < 2 µg/mL | 16 to 64 µg/mL (≈ 42.1 to 168 µM)
C[C@@H](N)[C@H](NC(=O)c1ccc(C#CC#CC2CC2)cc1)C(=O)NO [Example 91-2] | < 2 µg/mL | 2 to 16 µg/mL (≈ 6.15 to 49.2 µM) | < 2 µg/mL | < 2 µg/mL | < 2 µg/mL | A (MIC's of 2.0 μg/mL or less = A) | < 2 µg/mL | 2 to 16 µg/mL (≈ 6.15 to 49.2 µM)
C[C@@H](N)[C@H](NC(=O)c1ccc(C#CC#CC2CCCC2)cc1)C(=O)NO [Example 91-3] | < 2 µg/mL | 2 to 16 µg/mL (≈ 5.66 to 45.3 µM) | 2 to 16 µg/mL (≈ 5.66 to 45.3 µM) | < 2 µg/mL | < 2 µg/mL | A (MIC's of 2.0 μg/mL or less = A) | < 2 µg/mL | 2 to 16 µg/mL (≈ 5.66 to 45.3 µM)
C[C@@H](N)[C@H](NC(=O)c1ccc(C#CC#CC2CCCCC2)cc1)C(=O)NO [Example 91-4] | < 2 µg/mL | 2 to 16 µg/mL (≈ 5.44 to 43.5 µM) | 2 to 16 µg/mL (≈ 5.44 to 43.5 µM) | < 2 µg/mL | 2 to 16 µg/mL (≈ 5.44 to 43.5 µM) | A (MIC's of 2.0 μg/mL or less = A) | < 2 µg/mL | 2 to 16 µg/mL (≈ 5.44 to 43.5 µM)
C[C@@H](O)[C@H](NC(=O)c1ccc(C#C/C=C/c2ccc(CN3CCOCC3)cc2)cc1)C(=O)NO [Example 96-1, N-((1S,2R)-2-Hydroxy-1-hydroxycarbamoyl-propyl)-4-[(E)-4-(4-morpholin-4-ylmethyl-phenyl)-but-3-en-1-ynyl]-benzamide] | < 2 µg/mL | < 2 µg/mL | 2 to 16 µg/mL (≈ 4.31 to 34.5 µM) | < 2 µg/mL | 2 to 16 µg/mL (≈ 4.31 to 34.5 µM) | A (MIC's of 2.0 μg/mL or less = A) | < 2 µg/mL | > 64 µg/mL
C[C@H](O)[C@H](NC(=O)c1ccc(C#C/C=C/c2ccc(CN3CCOCC3)cc2)cc1)C(=O)NO [Example 96-2] | < 2 µg/mL | 2 to 16 µg/mL (≈ 4.31 to 34.5 µM) | 2 to 16 µg/mL (≈ 4.31 to 34.5 µM) | < 2 µg/mL | 2 to 16 µg/mL (≈ 4.31 to 34.5 µM) | A (MIC's of 2.0 μg/mL or less = A) | < 2 µg/mL | 16 to 64 µg/mL (≈ 34.5 to 138 µM)
CC(C)[C@H](NC(=O)c1ccc(C#C/C=C/c2ccc(CN3CCOCC3)cc2)cc1)C(=O)NO [Example 96-3] | < 2 µg/mL | 2 to 16 µg/mL (≈ 4.33 to 34.7 µM) | 2 to 16 µg/mL (≈ 4.33 to 34.7 µM) | < 2 µg/mL | 2 to 16 µg/mL (≈ 4.33 to 34.7 µM) | A (MIC's of 2.0 μg/mL or less = A) | < 2 µg/mL | 16 to 64 µg/mL (≈ 34.7 to 139 µM)
C[C@@H](N)[C@H](NC(=O)c1ccc(C#C/C=C/c2ccc(CN3CCOCC3)cc2)cc1)C(=O)NO [Example 96-4] | < 2 µg/mL | 2 to 16 µg/mL (≈ 4.32 to 34.6 µM) | 2 to 16 µg/mL (≈ 4.32 to 34.6 µM) | < 2 µg/mL | 2 to 16 µg/mL (≈ 4.32 to 34.6 µM) | A (MIC's of 2.0 μg/mL or less = A) | < 2 µg/mL | > 64 µg/mL
CO[C@H](C)[C@H](NC(=O)c1ccc(C#C/C=C/c2ccc(CN3CCOCC3)cc2)cc1)C(=O)NO [Example 97-1, N-((1S,2R)-1-Hydroxycarbamoyl-2-methoxy-propyl)-4-[(E)-4-(4-morpholin-4-ylmethyl-phenyl)-but-3-en-1-ynyl]-benzamide] | < 2 µg/mL | < 2 µg/mL | 2 to 16 µg/mL (≈ 4.19 to 33.5 µM) | < 2 µg/mL | 2 to 16 µg/mL (≈ 4.19 to 33.5 µM) | A (MIC's of 2.0 μg/mL or less = A) | < 2 µg/mL | 16 to 64 µg/mL (≈ 33.5 to 134 µM)
NC[C@H](NC(=O)c1ccc(C#C/C=C/c2ccc(CN3CCOCC3)cc2)cc1)C(=O)NO [Example 98-1, N—((S)-2-amino-1-hydroxycarbamoyl-ethyl)-4-[(E)-4-(4-morpholin-4-ylmethyl-phenyl)-but-3-en-1-ynyl]-benzamide] | < 2 µg/mL | < 2 µg/mL | 16 to 64 µg/mL (≈ 35.7 to 143 µM) | < 2 µg/mL | < 2 µg/mL | A (MIC's of 2.0 μg/mL or less = A) | < 2 µg/mL | 16 to 64 µg/mL (≈ 35.7 to 143 µM)
